Assays:
spinal release of PGE2 = assay: Intrathecal dialysis and PGE2 assay; assay type: in vivo, rat; conditions: 3 mg/kg IP pretreatment
Excerpt: For spinal drug injections, lumbar catheters were implanted in rats under isoflurane anesthesia according to a modification of the procedure described by Yaksh (Yaksh and Rudy, supra, 1976). A polyethylene catheter (PE-5; Spectranetics, 0.014 in OD) was inserted into the intrathecal space and advanced to the rostral edge of the lumbar enlargement through an incision in the atlanto-occipital membrane. Five days after implantation rats were entered into the study. In separate experiments to assess spinal prostaglandins release, rats were prepared with lumbar loop dialysis catheters with three lumens, as previously described, see (Yaksh, et al., supra, 2001).
In brief, the outer two lumens were connected to a length of dialysis tubing (10 Kda cut off). The catheter was then implanted intrathecally using the same technique as described above for the intrathecal catheter. A three-day interval was allowed to elapse prior to including the animal in a study. In all cases, the exclusion criteria were i) presence of any neurological sequelae, ii) 20% weight loss after implantation, or iii) catheter occlusion.
Spinal dialysis experiments to define the spinal release of PGE2 were conducted in unanesthetized rats 3 days after dialysis catheter implantation. A syringe pump (Harvard, Natick, Mass.) was connected and dialysis tubing was perfused with artificial cerebro spinal fluid (ACSF) at a rate of 10 μl/min. The ACSF contained (mM) 151.1 Na^+, 2.6 K^+, 0.9 Mg^2+, 1.3 Ca^2+, 122.7 Cl^−, 21.0 HCO3, 2.5 HPO4 and 3.5 dextrose and was bubbled with 95% O2/5% CO2 before each experiment to adjust the final pH to 7.2. The efflux (20 min per fraction) was collected in an automatic fraction collector (Eicom, Kyoto, Japan) at 4° C. […] The concentration of PGE2 in spinal dialysate was measured by ELISA using a commercially available kit (Assay Designs 90001, Assay Designs, Ann Arbor, Mich.). The antibody is selective for PGE2 with less than 2.0% cross-reactivity to PGF1, PGF2, 6-ketoPGF1, PGA2 or PGB2, but cross-reacts with PGE1 and PGE3.

[1] = test system: carrageenan-induced thermal hyperalgesia; assay: Carrageenan-induced thermal hyperalgesia, paw withdrawal latency; assay type: in vivo, rat
Excerpt: Male Holtzman Sprague-Dawley rats (300-350 g; Harlan Industries) were individually housed and maintained on a 12-hr light/dark cycle with free access to food and water. For spinal drug injections, lumbar catheters were implanted in rats under isoflurane anesthesia according to a modification of the procedure described by Yaksh (Yaksh and Rudy, supra, 1976). A polyethylene catheter (PE-5; Spectranetics, 0.014 in OD) was inserted into the intrathecal space and advanced to the rostral edge of the lumbar enlargement through an incision in the atlanto-occipital membrane. Five days after implantation rats were entered into the study. In separate experiments to assess spinal prostaglandins release, rats were prepared with lumbar loop dialysis catheters with three lumens, as previously described, see (Yaksh, et al., supra, 2001). Thermal hyperalgesia. Two approaches were employed to initiate a hyperalgesic state. An inflammation-evoked thermal hyperalgesia was induced by subcutaneous injection of 2 mg of carrageenan (Sigma, St. Louis, Mo., 100 μl of […] solution (w/v) in physiological saline) into the plantar surface of the left hind paw. To assess the thermally-evoked paw-withdrawal response, a commercially available device modeled after that described by Hargreaves and colleagues (Hargreaves, Pain, 32:77-88, 1988) was used (see, Dirig and Yaksh, Neurosci. Lett., 220:93-96, 1996; Dirig, et al., J. Neurosci. Methods, 76:183-191, 1997). In brief, the device consisted of a glass surface (maintained at 25° C.) on which the rats are placed individually in Plexiglas cubicles (9×22×25 cm). The thermal nociceptive stimulus originated from a focused projection bulb positioned below the glass surface. The stimulus was delivered separately to either hind paw of each test subject with the aid of an angled mirror mounted on the stimulus source. A timer was actuated with the light source, and latency was defined as the time required for the paw to show a brisk withdrawal as detected by photodiode motion sensors that stop the timer and terminate the stimulus. Paw withdrawal latencies (PWL) were assessed prior to any treatment (control) and at intervals after treatment. Left (injured) and right (uninjured) paw withdrawal latencies were assessed and plotted versus time. In addition, difference latency scores (uninjured-injured) were calculated and the average withdrawal latency over the post-injection observation intervals are calculated for comparison between treatment groups. Drugs were delivered systemically (IP) or spinally (IT). Intraperitoneal drugs were delivered uniformly in doses prepared in volumes of 0.5 ml/kg. Drugs injected IT were administered in a total volume of […] followed by a 10 μl flush using vehicle.

GV sPLA2 = biological target: T1, GV sPLA2 (Homo sapiens, UniProt P39877); assay: GV sPLA2 activity assay; assay type: biochemical; conditions: at 0.091 mole fraction
T1 sequence (P39877 21-138): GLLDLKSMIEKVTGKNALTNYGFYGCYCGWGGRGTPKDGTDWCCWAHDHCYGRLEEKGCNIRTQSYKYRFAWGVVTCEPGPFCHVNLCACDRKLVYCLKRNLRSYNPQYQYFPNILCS

SMILES | IT SP-evoked release of PGE2 in spinal dialysate (spinal release of PGE2) | antihyperalgesic effect by pretreatment interval ([1]; 3 mg/kg IP, 15 min before carrageenan) | antihyperalgesic effect by pretreatment interval ([1]; 3 mg/kg IP, 30 min before carrageenan) | reduction of carrageenan thermal hyperalgesia ([1]; 3 mg/kg IP, 30 min pretreatment) | antihyperalgesic effect by pretreatment interval ([1]; 3 mg/kg IP, 180 min before carrageenan) | antihyperalgesic effect by pretreatment interval ([1]; 3 mg/kg IP, 360 min before carrageenan) | dose dependency of anti-hyperalgesic effect ([1]; IP, 0.2-3 mg/kg) | ED50 ([1]; Rattus norvegicus, IP, carrageenan thermal hyperalgesia, read-out: IP ED50, dose that reduced the hyperalgesia by 50%) [mg/kg] | attenuation of carrageenan thermal hyperalgesia ([1]; intrathecal 30 μg/10 μL, 15 min pretreatment) | efficacy against sPLA2 (GV sPLA2) [%]
CCC(=O)C(=O)NCCCC(=O)OC [AX010] | significant increase as compared to vehicle only |  |  |  |  |  |  |  |  | 
CCCCCCCCCCCCCCC(=O)C(=O)NCCCC(=O)OCC [AX048, Ethyl 4-[(2-oxohexadecanoyl)amino]butanoate] | significant inhibitory effect upon PGE2 synthesis and release | minimal effects | peak effects | reduced the thermal hyperalgesia | effects persisted | no different from the control | dose-dependent | 1.2 | attenuated the thermal hyperalgesia | 61.5
